# Measurements published in patent US20250161285A1, “BACTERIAL BIOFILM INHIBITORS” (THE RESEARCH INSTITUTE AT NATIONWIDE CHILDREN'S HOSPITAL, priority 2022, published 2025).
# Key:
# [1] = system: S. Typhimurium ATCC 14028 (JSG210) biofilms; experiment: Biofilm inhibition assay (crystal violet staining); format: cell-based, Salmonella enterica serovar Typhimurium; conditions: for IC50: inhibition of S. Typhimurium biofilm formation, compound present 24 h, crystal violet OD570, mean ± standard deviation; for anti-biofilm activity (inhibition and dispersion) in words: S. Typhimurium biofilms in vitro; for fold improvement of IC50 versus comparator: 6a vs 4c, 6b vs 4d, 6g vs 4c and 4d, 8i vs 8b
# Experimental: Inhibition of biofilm formation is assessed by growing bacteria in a 96-well plate in the absence (control) or presence of test compounds. After 24 hours, the wells are washed to remove planktonic bacteria, and the remaining surface attached bacteria (biofilm) are stained with crystal violet (CV). The wells are then washed again to remove excess CV, and the remaining CV is solubilized with a solution of acetic acid and then quantified by spectrophotometry at 570 nm. A dose response curve is then constructed from which an IC50 value is determined.
# (§1) Salmonella biofilm growth and crystal violet staining. […] For biofilm assays, individual bacterial colonies were picked and used to inoculate LB broth for overnight liquid cultures, which were grown at 37° C. with aeration using a rotating drum. […] Biofilm plates were then submerged in dH2O to wash away any remaining non-adherent bacteria and heat fixed (1h, 60° C.). Biofilms were then stained with a 33% crystal violet solution (6 mL PBS, 3.3 mL crystal violet, 333 μL methanol, 333 μL isopropanol) for 5 min. and washed twice by submerging in dH2O before releasing the bound dye with 33% glacial acetic acid. Biofilm growth was then quantified by measuring the optical density of the solubilized dye at 570 nm using a spectrophotometer (Molecular Devices, SpectraMax M5).
# (§2) Biofilm Inhibition and Dispersion Assays and IC50/EC50 Determination. […] Biofilms were then grown as described above for a total of 24 h prior to CV staining. […] Biofilms were then incubated for an additional 24 h in the presence of compounds prior to CV staining. IC50/EC50 values were calculated by plotting normalized compound activity (percent biofilm formed and percent remaining, respectively) as a function of log10 compound concentration and fitting a dose response curve (log[inhibitor] vs. normalized response, variable slope).
# [2] = system: S. Typhimurium ATCC 14028 (JSG210) biofilms; experiment: Biofilm dispersion assay on pre-formed biofilms (crystal violet staining); format: cell-based, Salmonella enterica serovar Typhimurium; conditions: for EC50: 50% dispersion of biofilms established 24 h, then 24 h with compound, crystal violet OD570, mean ± standard deviation; for fold improvement of dispersion activity (EC50) versus comparator: 4d vs 1, 6g vs 4c and 4d, lead compounds vs parent compound
# Experimental: as §1, §2
Compound,IC50 [1],EC50 [2],also measured
CN(Cc1ccccc1)CC1CCN(CCc2ccccc2F)CC1 [Compound 3.1a],5 µM,> 75 µM,–
Cc1ccccc1CN(C)CC1CCN(CCc2ccccc2F)CC1 [Compound 3.1b],4.4 µM,> 75 µM,–
CN(Cc1ccccc1F)CC1CCN(CCc2ccccc2F)CC1 [Compound 3.1c],14.9 µM,> 75 µM,–
CN(Cc1ccccc1Cl)CC1CCN(CCc2ccccc2F)CC1 [Compound 3.1d],6.3 µM,> 75 µM,–
CN(Cc1ccccc1Br)CC1CCN(CCc2ccccc2F)CC1 [Compound 3.1e],6.5 µM,42 µM,–
CN(Cc1ccccc1I)CC1CCN(CCc2ccccc2F)CC1 [Compound 3.1f],4.4 µM,53 µM,–
CN(Cc1cccc(Cl)c1)CC1CCN(CCc2ccccc2F)CC1 [Compound 3.1h],5.6 µM,> 75 µM,–
CN(Cc1ccc(F)cc1)CC1CCN(CCc2ccccc2F)CC1 [Compound 3.1i],5.5 µM,> 75 µM,–
CN(Cc1cccc(Cl)c1Cl)CC1CCN(CCc2ccccc2F)CC1 [Compound 3.1l],5.6 µM,43 µM,–
CN(Cc1ccccc1)CC1CCN(CCc2ccc(Cl)c(Cl)c2)CC1 [Compound 3.2a],0.59 µM,35 µM,–
CN(Cc1ccccc1I)CC1CCN(CCc2ccc(Cl)c(Cl)c2)CC1 [Compound 3.2d],3.4 µM,26 µM,–
CN(Cc1cccc(Cl)c1)CC1CCN(CCc2ccc(Cl)c(Cl)c2)CC1 [Compound 3.2f],2.3 µM,21 µM,–
CN(Cc1ccc(Cl)c(Cl)c1)CC1CCN(CCc2ccc(Cl)c(Cl)c2)CC1 [Compound 3.2h],0.96 µM,17 µM,–
CN(Cc1ccccc1)CC1CCN(CCc2ccc(Cl)cc2Cl)CC1 [Compound 3.3a],4.3 ± 2.1 µM,11 ± 7 µM,–
CN(Cc1ccccc1Cl)CC1CCN(CCc2ccc(Cl)cc2Cl)CC1 [Compound 3.3c],11.3 ± 7.3 µM,14 ± 10 µM,–
CN(Cc1ccccc1I)CC1CCN(CCc2ccc(Cl)cc2Cl)CC1 [Compound 3.3d],10.1 ± 4.5 µM,> 50 µM,–
CN(Cc1cccc(Cl)c1Cl)CC1CCN(CCc2ccc(Cl)cc2Cl)CC1 [Compound 3.3i],6.5 ± 2.5 µM,8 ± 4 µM,–
CN(Cc1cccc2ccccc12)CC1CCN(CCc2ccccc2F)CC1 [Compound 3.4a],4.2 ± 2.9 µM,12 ± 8 µM,–
CN(Cc1ccccn1)CC1CCN(CCc2ccccc2F)CC1 [Compound 3.8a],> 20 µM,> 50 µM,–
CN(Cc1ccncc1)CC1CCN(CCc2ccccc2F)CC1 [Compound 3.8c],> 20 µM,> 50 µM,–
CN(Cc1ccsc1)CC1CCN(CCc2ccccc2Cl)CC1 [Compound 4a],6 ± 1.4 µM,232 ± 6 µM,–
CN(Cc1ccsc1)CC1CCN(CCc2ccccc2Br)CC1 [Compound 4b],7.2 ± 1.6 µM,308 ± 11 µM,–

Compound,IC50 [1],EC50 [2],also measured
CN(Cc1ccsc1)CC1CCN(CCc2cccc(F)c2)CC1 [Compound 4c],6.9 ± 0.1 µM,388 ± 19 µM,–
CN(Cc1ccsc1)CC1CCN(CCc2ccc(F)cc2)CC1 [Compound 4d],16.8 ± 3.4 µM,235 µM,fold improvement of dispersion activity (EC50) versus comparator [2]: ca. 3.5
CN(Cc1ccsc1)CC1CCN(CCc2cc(F)cc(F)c2)CC1 [Compound 4e],> 200 µM,> 12000 µM,anti-biofilm activity (inhibition and dispersion) in words [1]: inactive
COc1ccccc1CCN1CCC(CN(C)Cc2ccsc2)CC1 [Compound 4f],16.9 ± 5.2 µM,11760 ± 77 µM,–
CN(Cc1ccsc1)CC1CCN(CCc2ccccc2)CC1 [Compound 4g],21.2 ± 2.6 µM,> 12000 µM,–
CNCC1CCN(CCc2ccccc2F)CC1 [Compound 5],–,–,anti-biofilm activity (inhibition and dispersion) in words [1]: abrogated activity; IC50 ([1]; Salmonella enterica): > 200 µM; EC50 ([2]; Salmonella enterica): > 12000 µM
CN(Cc1ccsc1)CC1CCN(CCc2cccc(Cl)c2)CC1 [Compound 6a],2 µM,135 ± 12 µM,fold improvement of IC50 versus comparator [1]: over two-fold
CN(Cc1ccsc1)CC1CCN(CCc2ccc(Cl)cc2)CC1 [Compound 6b],3 ± 1.4 µM,69 ± 4 µM,fold improvement of IC50 versus comparator [1]: over four-fold
CN(Cc1ccsc1)CC1CCN(CCc2cccc(Br)c2)CC1 [Compound 6c],3.6 µM,83 ± 6 µM,–
CN(Cc1ccsc1)CC1CCN(CCc2ccc(Br)cc2)CC1 [Compound 6d],3 ± 0.7 µM,57 ± 4 µM,–
CN(Cc1ccsc1)CC1CCN(CCc2cc(Cl)cc(Cl)c2)CC1 [Compound 6e],1.6 µM,45 µM,–
CN(Cc1ccsc1)CC1CCN(CCc2cc(Br)cc(Br)c2)CC1 [Compound 6f],3.4 µM,42 µM,–
CN(Cc1ccsc1)CC1CCN(CCc2ccc(F)c(F)c2)CC1 [Compound 6g],3 ± 0.2 µM,87 ± 13 µM,fold improvement of IC50 versus comparator [1]: over two-fold; fold improvement of dispersion activity (EC50) versus comparator [2]: over two-fold
CN(Cc1ccsc1)CC1CCN(CCc2c(F)cccc2F)CC1 [Compound 6h],6.3 ± 0.6 µM,138 ± 18 µM,–
CN(Cc1ccsc1)CC1CCN(Cc2ccccc2F)CC1 [Compound 6i],8.8 ± 0.8 µM,125 ± 6 µM,–
CN(Cc1ccsc1)CC1CCN(Cc2ccccc2Cl)CC1 [Compound 6j],2.7 ± 0.7 µM,1810 ± 176 µM,–
CN(Cc1ccsc1)CC1CCN(Cc2ccccc2)CC1 [Compound 6k],26.7 ± 1.2 µM,> 12000 µM,–
CN(Cc1ccsc1)CC1CCN(CCCc2ccccc2F)CC1 [Compound 6l],11.5 ± 2.7 µM,221 ± 17 µM,–
CN(Cc1ccsc1)CC1CCN(CCCc2ccccc2Cl)CC1 [Compound 6m],5.4 ± 1.2 µM,59 ± 4 µM,–
CN(Cc1ccsc1)CC1CCN(CCCc2ccccc2)CC1 [Compound 6n],78.1 ± 3.7 µM,> 12000 µM,–
CN(Cc1ccsc1)CC1CCN(CCc2ccc(Cl)c(Cl)c2)CC1 [Compound 7a],1.4 µM,45 ± 2 µM,–
CN(Cc1ccsc1)CC1CCN(CCc2ccc(Cl)cc2Cl)CC1 [Compound 7c],2.5 ± 0.5 µM,22 ± 2 µM,–

Compound,IC50 [1],EC50 [2],also measured
CN(Cc1ccsc1)CC1CCN(CCc2ccccc2C(F)(F)F)CC1 [Compound 7e],12.7 ± 4.1 µM,60 ± 2 µM,–
CN(Cc1ccsc1)CC1CCN(Cc2ccccc2Br)CC1 [Compound 7f],4.9 ± 0.8 µM,79 ± 3 µM,–
CN(Cc1ccsc1)CC1CCN(Cc2cccc(Cl)c2)CC1 [Compound 7h],5.2 ± 1.3 µM,299 ± 21 µM,–
CN(Cc1ccsc1)CC1CCN(Cc2cccc(Br)c2)CC1 [Compound 7i],6.5 ± 2.9 µM,142 ± 9 µM,–
CN(Cc1ccsc1)CC1CCN(Cc2ccc(F)cc2)CC1 [Compound 7j],12.9 ± 1.4 µM,443 ± 52 µM,–
CN(Cc1ccsc1)CC1CCN(Cc2ccc(Cl)cc2)CC1 [Compound 7k],5.9 ± 2.8 µM,934 ± 26 µM,–
CN(Cc1ccsc1)CC1CCN(Cc2ccc(Br)cc2)CC1 [Compound 7l],8.5 ± 1.8 µM,127 ± 13 µM,–
CN(Cc1ccsc1)CC1CCN(Cc2cc(F)cc(F)c2)CC1 [Compound 7m],14.2 ± 1.7 µM,> 12000 µM,–
CN(Cc1ccsc1)CC1CCN(Cc2c(F)cccc2F)CC1 [Compound 7n],> 200 µM,> 12000 µM,–
CN(Cc1ccsc1)CC1CCN(Cc2ccc(F)c(F)c2)CC1 [Compound 7o],7.2 ± 1.8 µM,3800 ± 204 µM,–
CN(Cc1ccsc1)CC1CCN(Cc2cc(Cl)ccc2Cl)CC1 [Compound 7p],15.8 ± 1.4 µM,196 ± 27 µM,–
CN(Cc1ccsc1)CC1CCN(Cc2cccc(Cl)c2Cl)CC1 [Compound 7r],2.7 ± 1.4 µM,70 ± 8 µM,–
CN(Cc1ccsc1)CC1CCN(Cc2ccc(Br)c(Br)c2)CC1 [Compound 7s],11.9 ± 1.7 µM,32 ± 1 µM,–
CN(Cc1ccsc1)CC1CCN(Cc2cccc(F)c2F)CC1 [Compound 7t],146 µM,870 ± 79 µM,–
CN(Cc1ccsc1)CC1CCN(Cc2ccccc2C(F)(F)F)CC1 [Compound 7u],20.9 µM,140 ± 39 µM,–
CN(Cc1ccsc1)CC1CCN(CCc2ccccc2I)CC1 [Compound 8a],4.3 µM,60 ± 2 µM,–
CN(Cc1ccsc1)CC1CCN(CCc2cccc(I)c2)CC1 [Compound 8b],4 ± 0.7 µM,44 ± 2 µM,–
CN(Cc1ccsc1)CC1CCN(CCc2ccc(I)cc2)CC1 [Compound 8c],2.6 µM,89 ± 10 µM,–
CN(Cc1ccsc1)CC1CCN(Cc2ccccc2I)CC1 [Compound 8d],5.4 ± 0.5 µM,79 ± 5 µM,–
CN(Cc1ccsc1)CC1CCN(Cc2cccc(I)c2)CC1 [Compound 8e],10 ± 4.5 µM,92 ± 3 µM,–
